The text below walks through data of patent US9260439B2, “Dihydropyrrolopyrimidine derivatives” (PFIZER INC., priority 2014, dated 2016).

The structures appear in SMILES notation.

Experiment [1] deals with full-length PI3Kα (full-length p110α/p85α) (Homo sapiens (Human), UniProt P42336). As to the kind of experiment: PI3KA_FL fluorescence polarization kinase assay (Ki). In kind it is biochemical. The settings on record: 41 μM ATP. For orientation: Polarisation of emitted light reports the rotation of a fluorescent probe.
The target of experiment [2] is truncated PI3Kα (p110α/iSH2 p85α) (Homo sapiens (Human), UniProt P42336). As to the kind of experiment: PI3KA_Act fluorescence polarization kinase assay (Ki). In kind it is biochemical. The settings on record: 1 mM ATP. A digest of the protocol: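 Ki values result from fitting fluorescence polarization signals to the Morrison equation for tight-binding competitive inhibitors. The detector was GST-Grp1 PH domain with TAMRA-PIP3, read after a 30 min room-temperature reaction of 0.5 nM truncated PI3Kα and 30 μM PIP2 at pH 7.4 in HEPES/NaCl/MgCl2/DTT/CHAPS buffer. Compounds were tested as 12-point 3-fold dilutions from 3 μM.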
truncated PI3Kα (p110α/iSH2 p85α), sequence (P42336 whole entry, the tested form may be a part): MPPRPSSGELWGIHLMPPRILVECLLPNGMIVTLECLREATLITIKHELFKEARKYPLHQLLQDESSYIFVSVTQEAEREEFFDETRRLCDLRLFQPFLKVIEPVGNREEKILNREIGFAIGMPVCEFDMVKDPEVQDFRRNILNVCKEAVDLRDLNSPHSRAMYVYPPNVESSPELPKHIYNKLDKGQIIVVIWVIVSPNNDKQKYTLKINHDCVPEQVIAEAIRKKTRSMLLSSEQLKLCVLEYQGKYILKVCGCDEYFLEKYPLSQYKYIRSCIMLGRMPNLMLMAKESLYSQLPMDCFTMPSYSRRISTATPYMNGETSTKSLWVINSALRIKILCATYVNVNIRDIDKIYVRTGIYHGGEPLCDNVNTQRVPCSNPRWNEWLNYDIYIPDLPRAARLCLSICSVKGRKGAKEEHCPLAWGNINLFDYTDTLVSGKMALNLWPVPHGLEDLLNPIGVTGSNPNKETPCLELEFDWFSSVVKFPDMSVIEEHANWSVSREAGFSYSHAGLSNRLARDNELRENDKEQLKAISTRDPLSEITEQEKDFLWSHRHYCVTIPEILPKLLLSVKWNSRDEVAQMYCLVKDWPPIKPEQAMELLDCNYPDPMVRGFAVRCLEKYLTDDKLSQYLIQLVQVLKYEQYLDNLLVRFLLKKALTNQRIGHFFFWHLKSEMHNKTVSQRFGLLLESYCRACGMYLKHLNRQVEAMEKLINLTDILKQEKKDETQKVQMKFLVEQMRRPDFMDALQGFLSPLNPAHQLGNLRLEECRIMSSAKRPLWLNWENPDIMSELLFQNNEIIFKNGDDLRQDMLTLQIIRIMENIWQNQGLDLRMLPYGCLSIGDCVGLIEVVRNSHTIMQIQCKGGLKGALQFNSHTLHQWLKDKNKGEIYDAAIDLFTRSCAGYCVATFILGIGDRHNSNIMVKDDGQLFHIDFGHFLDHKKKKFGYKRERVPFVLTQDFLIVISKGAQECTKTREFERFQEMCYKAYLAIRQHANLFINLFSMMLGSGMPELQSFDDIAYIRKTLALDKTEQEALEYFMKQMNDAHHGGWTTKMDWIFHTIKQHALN

full-length PI3Kα (full-length p110α/p85α), sequence (P42336 whole entry, the tested form may be a part): as above
full-length PI3Kα (full-length p110α/p85α), sequence (P27986 whole entry partner, the tested form may be a part): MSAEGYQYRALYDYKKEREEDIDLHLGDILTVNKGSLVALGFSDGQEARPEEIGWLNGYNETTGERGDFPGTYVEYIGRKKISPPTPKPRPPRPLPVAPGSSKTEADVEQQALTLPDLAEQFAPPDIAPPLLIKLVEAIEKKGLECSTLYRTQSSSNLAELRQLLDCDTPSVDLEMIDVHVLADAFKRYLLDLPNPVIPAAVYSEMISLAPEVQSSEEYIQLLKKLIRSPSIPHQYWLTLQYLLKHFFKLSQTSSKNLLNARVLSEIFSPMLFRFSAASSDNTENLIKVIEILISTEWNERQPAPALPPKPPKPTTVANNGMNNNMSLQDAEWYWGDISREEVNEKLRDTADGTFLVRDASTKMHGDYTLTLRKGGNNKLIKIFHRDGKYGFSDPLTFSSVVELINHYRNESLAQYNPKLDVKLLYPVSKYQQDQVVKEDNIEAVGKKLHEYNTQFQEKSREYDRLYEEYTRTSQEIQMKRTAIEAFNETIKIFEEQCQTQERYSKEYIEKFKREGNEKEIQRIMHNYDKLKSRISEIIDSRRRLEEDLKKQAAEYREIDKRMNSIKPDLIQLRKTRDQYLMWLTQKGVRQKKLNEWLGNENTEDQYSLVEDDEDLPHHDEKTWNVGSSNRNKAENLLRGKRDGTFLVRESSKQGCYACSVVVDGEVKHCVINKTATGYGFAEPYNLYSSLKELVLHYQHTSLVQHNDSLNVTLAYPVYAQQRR

On to `CNS(=O)(=O)N1CC[C@@H](N2CCc3c(-c4cnc(N)nc4)nc(N4CCOC[C@@H]4C)nc32)C1` [Example 92], for which, in experiment [1], the “PI3KA_FL Ki” value came to 0.475 nM. Further, the “PI3KA_Act Ki” value in experiment [2] was 0.376 nM.

As for `CS(=O)(=O)N1CCC[C@@H](N2CCc3c(-c4cnc(N)nc4)nc(N4CCOCC4)nc32)C1` [Example 93], the “PI3KA_FL Ki” value in experiment [1] is listed as 0.506 nM. The “PI3KA_Act Ki” value in experiment [2] came to 0.603 nM.

Turning to `CNS(=O)(=O)O[C@H]1C[C@H](N2CCc3c(-c4cnc(N)nc4)nc(N4CCOCC4)nc32)C1` [Example 95], in experiment [1], the “PI3KA_FL Ki (nM)” value is on record as “≦0.229 nM”. For the same compound, the “PI3KA_Act Ki” value in experiment [2] was 0.078 nM.

On to `C[C@H]1COCCN1c1nc(-c2cnc(N)nc2)c2c(n1)N([C@H]1CCN(S(N)(=O)=O)C1)CC2` [Example 100], for which the “PI3KA_FL Ki (nM)” value in experiment [1] is listed as “≦0.229 nM”. The “PI3KA_Act Ki” value in experiment [2] is reported as 0.132 nM.

On to `CCS(=O)(=O)N1CC[C@H](N2CCc3c(-c4cnc(N)nc4)nc(N4CCOCC4)nc32)C1` [Example 101], for which the “PI3KA_FL Ki (nM)” value in experiment [1] was “≦0.229 nM”. Besides, the “PI3KA_Act Ki” value in experiment [2] is 0.093 nM.

With `Nc1ncc(-c2nc(N3CCOCC3)nc3c2CCN3[C@H]2CCN(S(=O)(=O)C3CC3)C2)cn1` [Example 102], the “PI3KA_FL Ki (nM)” value in experiment [1] is given as “≦0.229 nM”. For the same compound, the “PI3KA_Act Ki” value in experiment [2] is on record as 0.067 nM.

As to `CNS(=O)(=O)O[C@H]1C[C@@H](N2CCc3c(-c4cnc(N)nc4)nc(N4CCOCC4)nc32)C1` [Example 104], in experiment [1], the “PI3KA_FL Ki (nM)” value is reported as “≦0.229 nM”. In addition, the “PI3KA_Act Ki” value in experiment [2] is on record as 0.079 nM.

Turning to `CS(=O)(=O)N[C@H]1C[C@H](N2CCc3c(-c4cnc(N)nc4)nc(N4CCOCC4)nc32)C1` [Example 105], in experiment [1], the “PI3KA_FL Ki” value is 0.285 nM. The “PI3KA_Act Ki” value in experiment [2] was determined as 0.157 nM.

Turning to `CC(C)S(=O)(=O)N1CC[C@H](N2CCc3c(-c4cnc(N)nc4)nc(N4CCOCC4)nc32)C1` [Example 106], the “PI3KA_FL Ki (nM)” value in experiment [1] is given as “≦0.229 nM”. Further, the “PI3KA_Act Ki” value in experiment [2] is 0.064 nM.

For the compound `CCS(=O)(=O)N1CC(N2CCc3c(-c4cnc(N)nc4)nc(N4CCOCC4)nc32)C1` [Example 108], the “PI3KA_FL Ki (nM)” value in experiment [1] is “≦0.229 nM”. Also, the “PI3KA_Act Ki” value in experiment [2] was 0.122 nM.

Take `Nc1ncc(-c2nc(N3CCOCC3)nc3c2CCN3C2CN(S(=O)(=O)C3CC3)C2)cn1` [Example 109]: the “PI3KA_FL Ki (nM)” value in experiment [1] was “≦0.229 nM”. In experiment [2], the “PI3KA_Act Ki” value is 0.118 nM.

As to `CC(C)S(=O)(=O)N1CC[C@@H](N2CCc3c(-c4cnc(N)nc4)nc(N4CCOCC4)nc32)C1` [Example 111], the “PI3KA_FL Ki (nM)” value in experiment [1] is recorded as “≦0.229 nM”. Also, the “PI3KA_Act Ki” value in experiment [2] is 0.151 nM.

For the compound `C[C@H]1COCCN1c1nc(-c2cnc(N)nc2)c2c(n1)N(C1CN(S(C)(=O)=O)C1)CC2` [Example 113], in experiment [1], the “PI3KA_FL Ki (nM)” value is “≦0.229 nM”. Further, in experiment [2], the “PI3KA_Act Ki” value is recorded as 0.289 nM.

For `CCS(=O)(=O)N1CC(N2CCc3c(-c4cnc(N)nc4)nc(N4CCOC[C@@H]4C)nc32)C1` [Example 115], the “PI3KA_FL Ki (nM)” value in experiment [1] is recorded as “≦0.229 nM”. Besides, the “PI3KA_Act Ki” value in experiment [2] was determined as 0.105 nM.

As to `CNS(=O)(=O)N1C[C@@H](N2CCc3c(-c4cnc(N)nc4)nc(N4CCOC[C@@H]4C)nc32)[C@H](OC)C1` [Example 117], in experiment [1], the “PI3KA_FL Ki” value is 0.256 nM. Besides, the “PI3KA_Act Ki” value in experiment [2] was determined as 0.179 nM.

Consider `C[C@H]1COCCN1c1nc(-c2cnc(N)nc2)c2c(n1)N(C1CN(S(=O)(=O)C3CC3)C1)CC2` [Example 118], for which the “PI3KA_FL Ki (nM)” value in experiment [1] is listed as “≦0.229 nM”. The “PI3KA_Act Ki” value in experiment [2] is 0.030 nM.

`CCS(=O)(=O)N1CC[C@H](N2CCc3c(-c4cnc(N)nc4)nc(N4CCOC[C@@H]4C)nc32)C1` [Example 119]: the “PI3KA_FL Ki (nM)” value in experiment [1] is “≦0.229 nM”. The “PI3KA_Act Ki” value in experiment [2] is 0.059 nM.

With `C[C@H]1COCCN1c1nc(-c2cnc(N)nc2)c2c(n1)N(C1CN(S(=O)(=O)N(C)C)C1)CC2` [Example 120], the “PI3KA_FL Ki (nM)” value in experiment [1] is “≦0.229 nM”. Besides, in experiment [2], the “PI3KA_Act Ki” value was 0.030 nM.

Consider `C[C@H]1COCCN1c1nc(-c2cnc(N)nc2)c2c(n1)N([C@H]1CCN(S(=O)(=O)C3CC3)C1)CC2` [Example 121], for which the “PI3KA_FL Ki (nM)” value in experiment [1] was “≦0.229 nM”. In addition, in experiment [2], the “PI3KA_Act Ki” value came out at 0.056 nM.

In the case of `CNS(=O)(=O)N1CC(N2CCc3c(-c4cnc(N)nc4)nc(N4CCOC[C@@H]4C)nc32)C1` [Example 122], the “PI3KA_FL Ki (nM)” value in experiment [1] was “≦0.229 nM”. In experiment [2], the “PI3KA_Act Ki” value is 0.064 nM.

As for `COC(=O)N1CC[C@H](N2CCc3c(-c4cnc(N)nc4)nc(N4CCOC[C@@H]4C)nc32)C1` [Example 123], in experiment [1], the “PI3KA_FL Ki (nM)” value is recorded as “≦0.229 nM”. The “PI3KA_Act Ki” value in experiment [2] was determined as 0.069 nM.

For `CCOC(=O)N1CC[C@H](N2CCc3c(-c4cnc(N)nc4)nc(N4CCOC[C@@H]4C)nc32)C1` [Example 125], in experiment [1], the “PI3KA_FL Ki (nM)” value is “≦0.229 nM”. Further, the “PI3KA_Act Ki” value in experiment [2] is 0.087 nM.

Regarding `C[C@H]1COCCN1c1nc(-c2cnc(N)nc2)c2c(n1)N(C1CN(S(N)(=O)=O)C1)CC2` [Example 126], in experiment [1], the “PI3KA_FL Ki (nM)” value was “≦0.229 nM”. Besides, the “PI3KA_Act Ki” value in experiment [2] is given as 0.219 nM.

For the compound `CNS(=O)(=O)N1C[C@@H](O)[C@H](N2CCc3c(-c4cnc(N)nc4)nc(N4CCOC[C@@H]4C)nc32)C1` [Example 128], in experiment [1], the “PI3KA_FL Ki (nM)” value is recorded as “≦0.229 nM”. The “PI3KA_Act Ki” value in experiment [2] is on record as 0.126 nM.

On to `CC(C)S(=O)(=O)N1CC[C@H](N2CCc3c(-c4cnc(N)nc4)nc(N4CCOC[C@@H]4C)nc32)C1` [Example 131], for which, in experiment [1], the “PI3KA_FL Ki (nM)” value is listed as “≦0.229 nM”. In addition, the “PI3KA_Act Ki” value in experiment [2] was 0.044 nM.

With `CC(C)(C)N1CCc2c(-c3cnc(N)nc3)nc(N3CCOCC3)nc21` [Example 132], the “PI3KA_FL Ki (nM)” value in experiment [1] is “≦0.229 nM”. Moreover, the “PI3KA_Act Ki” value in experiment [2] is listed as 0.150 nM.

As for `CC(=O)N1CC(OC(=O)N2CC[C@@H](N3CCc4c(-c5cnc(N)nc5)nc(N5CCOC[C@@H]5C)nc43)C2)C1` [Example 136], the “PI3KA_FL Ki (nM)” value in experiment [1] is recorded as “≦0.229 nM”. Moreover, the “PI3KA_Act Ki” value in experiment [2] worked out at 0.099 nM.
